Source: patent US20220220103A1, “CYCLIN-DEPENDENT KINASE INHIBITORS” (SPV THERAPEUTICS INC., priority 2018, published 2022)
Values joined by “and” are separate entries in the source; they are usually repeats but may differ in a detail not shown here. Identical values can stand only once. Like-named read-outs stand apart in the source and are kept apart here.

How the values were obtained:
Type in all cases: biochemical
CDK2-CYCLINA = CDK2-CYCLINA (Homo sapiens, UniProt P24941); experiment: Microfluidic LabChip inhibition assay, CDK2-CYCLINA; conditions: ATP 50 μM
Procedure: (§1) The reaction was terminated by the addition of EDTA. The plates were analyzed using a Caliper LabChip 3000.
(§2) Additional inhibition assays were performed as described above.

CDK9-CYCLINT1 = CDK9-CYCLINT1 (Homo sapiens, UniProt P50750); experiment: Microfluidic LabChip inhibition assay, CDK9-CYCLINT1; conditions: ATP 10 μM
Procedure: as §1, §2

CDK1/B = CDK1/B (Homo sapiens, UniProt P06493); experiment: Inhibition assay, CDK1/B
Procedure: as §1, §2

CDK7 CyclinH = CDK7 CyclinH (Homo sapiens, UniProt P50613); experiment: Inhibition assay, CDK7 CyclinH
Procedure: as §1, §2

CDK4-CYCLIND1 = CDK4-CYCLIND1 (Homo sapiens, UniProt P11802); experiment: Microfluidic LabChip inhibition assay, CDK4-CYCLIND1; conditions: ATP 200 μM
Procedure: as §1, §2

CDK6-CYCLIND3 = CDK6-CYCLIND3 (Homo sapiens, UniProt Q00534); experiment: Microfluidic LabChip inhibition assay, CDK6-CYCLIND3; conditions: ATP 300 μM
Procedure: as §1, §2

[1] = Table 3a, read-out: CDK1/B IC50
[2] = Table 3a, second values in parentheses on the line below, not explained, read-out: CDK4 CyclinD1 IC50
[3] = Table 3b, second values in parentheses on the line below, not explained, read-out: CDK4 CyclinD1 IC50
[4] = Table 3a, read-out: CDK6 CyclinD3 IC50
[5] = Table 3b, read-out: CDK1/B IC50

CDK9-CYCLINT1, sequence (P50750 whole entry): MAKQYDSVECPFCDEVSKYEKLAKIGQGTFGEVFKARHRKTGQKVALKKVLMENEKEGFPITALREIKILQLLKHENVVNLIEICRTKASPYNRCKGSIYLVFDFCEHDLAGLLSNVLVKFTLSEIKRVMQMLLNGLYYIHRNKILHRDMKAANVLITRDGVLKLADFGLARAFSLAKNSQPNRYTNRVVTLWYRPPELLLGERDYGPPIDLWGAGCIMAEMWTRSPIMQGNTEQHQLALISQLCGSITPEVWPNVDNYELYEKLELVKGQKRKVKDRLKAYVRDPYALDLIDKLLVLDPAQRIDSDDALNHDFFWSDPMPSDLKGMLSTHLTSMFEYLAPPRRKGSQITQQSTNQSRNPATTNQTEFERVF
CDK9-CYCLINT1, sequence (O60563 whole entry partner): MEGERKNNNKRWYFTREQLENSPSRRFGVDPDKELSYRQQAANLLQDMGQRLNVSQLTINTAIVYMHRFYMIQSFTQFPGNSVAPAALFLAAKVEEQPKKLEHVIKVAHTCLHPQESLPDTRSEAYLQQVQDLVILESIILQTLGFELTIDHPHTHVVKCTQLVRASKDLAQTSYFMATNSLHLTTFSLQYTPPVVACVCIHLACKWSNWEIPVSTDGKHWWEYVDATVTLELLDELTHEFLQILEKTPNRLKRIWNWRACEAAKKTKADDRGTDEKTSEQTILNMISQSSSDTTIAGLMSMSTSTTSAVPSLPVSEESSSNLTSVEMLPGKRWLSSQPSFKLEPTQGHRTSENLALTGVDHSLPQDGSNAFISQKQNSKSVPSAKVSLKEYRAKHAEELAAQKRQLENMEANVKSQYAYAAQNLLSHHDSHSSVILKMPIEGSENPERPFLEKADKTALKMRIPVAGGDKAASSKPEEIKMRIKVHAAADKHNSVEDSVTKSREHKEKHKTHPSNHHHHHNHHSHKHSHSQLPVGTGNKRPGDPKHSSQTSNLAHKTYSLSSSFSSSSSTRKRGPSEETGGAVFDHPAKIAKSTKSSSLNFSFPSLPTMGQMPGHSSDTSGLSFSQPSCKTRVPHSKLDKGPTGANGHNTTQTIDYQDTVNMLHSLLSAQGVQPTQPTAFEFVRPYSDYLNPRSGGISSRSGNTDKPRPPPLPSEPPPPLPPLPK
CDK7 CyclinH, sequence (P50613 whole entry): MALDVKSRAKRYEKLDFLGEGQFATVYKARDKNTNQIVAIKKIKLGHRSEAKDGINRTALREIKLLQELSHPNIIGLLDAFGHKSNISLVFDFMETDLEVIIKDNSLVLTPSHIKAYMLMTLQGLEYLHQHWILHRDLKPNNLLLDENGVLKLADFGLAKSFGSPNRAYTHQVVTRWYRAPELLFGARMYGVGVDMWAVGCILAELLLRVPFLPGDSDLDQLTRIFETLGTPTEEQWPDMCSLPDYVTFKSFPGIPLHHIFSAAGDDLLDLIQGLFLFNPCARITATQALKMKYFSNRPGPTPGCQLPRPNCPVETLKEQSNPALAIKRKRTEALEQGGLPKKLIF
CDK7 CyclinH, sequence (P51946 whole entry partner): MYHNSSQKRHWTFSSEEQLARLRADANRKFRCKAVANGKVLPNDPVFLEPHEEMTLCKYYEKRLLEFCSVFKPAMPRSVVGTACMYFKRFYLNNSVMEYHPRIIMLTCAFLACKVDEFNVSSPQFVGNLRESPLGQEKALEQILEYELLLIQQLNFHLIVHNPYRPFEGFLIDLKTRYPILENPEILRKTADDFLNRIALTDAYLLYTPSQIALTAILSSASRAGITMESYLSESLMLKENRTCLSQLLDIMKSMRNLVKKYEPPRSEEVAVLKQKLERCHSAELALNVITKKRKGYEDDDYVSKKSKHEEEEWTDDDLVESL
CDK7 CyclinH, sequence (P51948 whole entry partner): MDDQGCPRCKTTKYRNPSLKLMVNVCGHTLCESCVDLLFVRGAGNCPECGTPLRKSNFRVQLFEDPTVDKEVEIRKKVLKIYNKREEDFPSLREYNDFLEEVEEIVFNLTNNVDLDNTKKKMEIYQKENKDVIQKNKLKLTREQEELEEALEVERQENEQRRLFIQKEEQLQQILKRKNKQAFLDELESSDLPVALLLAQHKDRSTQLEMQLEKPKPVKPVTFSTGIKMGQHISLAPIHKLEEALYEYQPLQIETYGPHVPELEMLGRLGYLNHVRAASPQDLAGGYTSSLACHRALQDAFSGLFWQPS
CDK6-CYCLIND3, sequence (Q00534 whole entry): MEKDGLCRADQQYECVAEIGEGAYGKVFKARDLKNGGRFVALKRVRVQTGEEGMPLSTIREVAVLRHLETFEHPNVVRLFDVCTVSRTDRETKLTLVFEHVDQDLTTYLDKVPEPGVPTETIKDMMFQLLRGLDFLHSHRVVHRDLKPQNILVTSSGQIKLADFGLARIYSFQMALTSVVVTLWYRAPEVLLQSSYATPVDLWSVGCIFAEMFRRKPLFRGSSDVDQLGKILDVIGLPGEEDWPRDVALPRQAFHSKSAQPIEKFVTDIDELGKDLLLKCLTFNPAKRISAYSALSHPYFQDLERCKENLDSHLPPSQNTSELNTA
CDK6-CYCLIND3, sequence (P30281 whole entry partner): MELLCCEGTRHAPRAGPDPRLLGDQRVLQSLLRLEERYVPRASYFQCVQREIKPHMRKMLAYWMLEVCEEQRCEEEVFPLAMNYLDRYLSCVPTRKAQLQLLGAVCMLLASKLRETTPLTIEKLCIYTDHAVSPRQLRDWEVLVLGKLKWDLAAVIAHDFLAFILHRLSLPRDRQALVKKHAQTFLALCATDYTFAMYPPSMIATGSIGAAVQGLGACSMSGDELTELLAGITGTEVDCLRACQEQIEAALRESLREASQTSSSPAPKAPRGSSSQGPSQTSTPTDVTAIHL
CDK4-CYCLIND1, sequence (P11802 whole entry): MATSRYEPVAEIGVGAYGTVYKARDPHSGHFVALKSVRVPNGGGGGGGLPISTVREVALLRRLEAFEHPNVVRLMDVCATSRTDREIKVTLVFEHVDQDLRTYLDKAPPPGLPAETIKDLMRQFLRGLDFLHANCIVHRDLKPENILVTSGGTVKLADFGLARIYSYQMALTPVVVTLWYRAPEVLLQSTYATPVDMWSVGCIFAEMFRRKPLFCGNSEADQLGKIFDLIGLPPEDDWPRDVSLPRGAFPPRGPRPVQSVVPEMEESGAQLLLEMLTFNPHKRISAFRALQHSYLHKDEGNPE
CDK4-CYCLIND1, sequence (P24385 whole entry partner): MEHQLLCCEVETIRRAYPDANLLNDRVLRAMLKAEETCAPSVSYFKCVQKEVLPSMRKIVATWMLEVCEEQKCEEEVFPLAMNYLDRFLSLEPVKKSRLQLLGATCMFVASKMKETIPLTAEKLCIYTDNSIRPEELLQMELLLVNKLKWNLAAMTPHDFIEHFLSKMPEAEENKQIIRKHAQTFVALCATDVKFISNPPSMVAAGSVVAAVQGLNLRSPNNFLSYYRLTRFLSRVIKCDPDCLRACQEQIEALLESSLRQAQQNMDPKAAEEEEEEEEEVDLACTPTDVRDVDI
CDK1/B, sequence (P06493 whole entry): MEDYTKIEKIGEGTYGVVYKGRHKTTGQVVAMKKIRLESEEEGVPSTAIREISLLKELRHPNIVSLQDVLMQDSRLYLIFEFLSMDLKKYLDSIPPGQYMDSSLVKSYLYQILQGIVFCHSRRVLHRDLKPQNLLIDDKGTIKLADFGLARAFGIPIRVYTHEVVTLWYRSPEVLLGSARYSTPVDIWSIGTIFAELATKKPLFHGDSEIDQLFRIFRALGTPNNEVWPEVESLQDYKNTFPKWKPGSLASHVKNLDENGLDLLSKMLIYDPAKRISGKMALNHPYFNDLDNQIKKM
CDK1/B, sequence (P14635 whole entry partner): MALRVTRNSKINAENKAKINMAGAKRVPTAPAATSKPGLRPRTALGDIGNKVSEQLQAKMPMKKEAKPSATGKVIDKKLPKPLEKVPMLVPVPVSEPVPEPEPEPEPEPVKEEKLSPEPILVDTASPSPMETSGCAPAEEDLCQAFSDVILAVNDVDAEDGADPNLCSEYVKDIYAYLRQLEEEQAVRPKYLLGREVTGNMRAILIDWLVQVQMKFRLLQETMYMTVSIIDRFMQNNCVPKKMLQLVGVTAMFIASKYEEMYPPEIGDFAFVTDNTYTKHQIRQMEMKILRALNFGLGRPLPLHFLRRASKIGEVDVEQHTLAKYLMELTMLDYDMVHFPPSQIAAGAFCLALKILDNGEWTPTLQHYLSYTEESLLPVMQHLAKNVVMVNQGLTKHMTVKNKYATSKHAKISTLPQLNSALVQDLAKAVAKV

| Compound | IC50 (CDK2-CYCLINA; Table 3a) [nM] | IC50 (CDK2-CYCLINA; Table 3b) [nM] | IC50 (CDK9-CYCLINT1; Table 3a) [nM] | IC50 (CDK9-CYCLINT1; Table 3b) [nM] | IC50 (CDK1/B; [1]) [nM] | IC50 (CDK7 CyclinH; Table 3a) [nM] | IC50 (CDK7 CyclinH; Table 3b) [nM] | IC50 (CDK4-CYCLIND1; [2]) | IC50 (CDK4-CYCLIND1; [3]) | IC50 (CDK6-CYCLIND3; [4]) [nM] | IC50 (CDK1/B; [5]) [nM] | IC50 (CDK1/B) [nM] | IC50 (CDK6-CYCLIND3; Table 2, 25° C., read-out: CDK6 IC50) [nM] | IC50 (CDK4-CYCLIND1; Table 2, 25° C., read-out: CDK4 IC50) [nM] |
| --- | --- | --- | --- | --- | --- | --- | --- | --- | --- | --- | --- | --- | --- | --- |
| CC(=O)c1c(C)c2cnc(Nc3ccc(OCCN(C)C)cc3)nc2n(C2CCCC2)c1=O [Compound B59, 6-acetyl-8-cyclopentyl-2-((4-(2-(dimethylamino)ethoxy)phenyl)amino)-5-methylpyrido[2,3-d]pyrimidin-7(8H)-one] | 211 | 211 | < 3.2 | < 3.2 | 527 | 640 | 640 | < 3.2 nM | < 3.2 nM |  |  |  |  |  |
| CC(=O)c1c(C)c2cnc(Nc3ccc(OCCN(C)C)cc3)nc2n(C2CCCC2)c1=O [Compound B60, 6-acetyl-8-cyclopentyl-2-((4-(2-(dimethylamino)ethoxy)phenyl)amino)-5-methylpyrido[2,3-d]pyrimidin-7(8H)-one] | 77.5 | 77.5 | 31.8 | 31.8 |  | 1100 | 1100 | 3 nM and 1.6 nM | 3 nM and 1.6 nM | 10.1 |  |  |  |  |
| CC(=O)c1c(C)c2cnc(Nc3ccc(OCCN(C)C)c(C)c3)nc2n(C2CCCC2)c1=O [Compound B61, 6-acetyl-8-cyclopentyl-2-((4-(2-(dimethylamino)ethoxy)-3-methylphenyl)amino)-5-methylpyrido[2,3-d]pyrimidin-7(8H)-one] | 7730 | 7730 | 790 | 790 |  | > 100000 | > 100000 | 1600 nM | 1600 nM | 3950 |  |  |  |  |
| COc1cc(Nc2ncc3c(C)c(C(C)=O)c(=O)n(C4CCCC4)c3n2)ccc1OCCN(C)C [Compound B62, 6-acetyl-8-cyclopentyl-2-((4-(2-(dimethylamino)ethoxy)-3-methoxyphenyl)amino)-5-methylpyrido[2,3-d]pyrimidin-7(8H)-one] | 280 | 280 | 336 | 336 |  | 1300 | 1300 | 26.3 nM and 14 nM | 26.3 nM and 14 nM | 37.5 |  |  |  |  |
| CC(=O)c1c(C)c2cnc(Nc3ccc(OCCN4CCCC4)cn3)nc2n(C2CCCC2)c1=O [Compound B66, 6-acetyl-8-cyclopentyl-5-methyl-2-((5-(2-(pyrrolidin-1-yl)ethoxy)pyridin-2-yl)amino)pyrido[2,3-d]pyrimidin-7(8H)-one] | > 10000 | > 10000 | 422 | 422 | > 10000 | > 10000 | > 10000 | 15.2 nM | 15.2 nM |  | > 10000 |  |  |  |
| CC(=O)c1c(C)c2cnc(Nc3ccc(N4CCN(C)CC4)cn3)nc2n(C23CC(C2)C3)c1=O [Compound B93, 6-acetyl-8-(bicyclo[1.1.1]pentan-1-yl)-5-methyl-2-((5-(4-methylpiperazin-1-yl)pyridin-2-yl)amino)pyrido[2,3-d]pyrimidin-7(8H)-one] | > 10000 | > 10000 | 1230 | 1230 | > 10000 | > 10000 | > 10000 | 48.3 nM | 48.3 nM |  | > 10000 |  |  |  |
| CC(=O)c1c(C)c2cnc(Nc3ccc(N4CCN(C)CC4)cc3)nc2n(C23CC(C2)C3)c1=O [Compound B96, 6-acetyl-8-(bicyclo[1.1.1]pentan-1-yl)-5-methyl-2-((4-(4-methylpiperazin-1-yl)phenyl)amino)pyrido[2,3-d]pyrimidin-7(8H)-one] | 2790 | 2790 | 97.6 | 97.6 | 4040 | 2840 | 2840 | 7.54 nM | 7.54 nM |  |  |  |  |  |
| N#Cc1cc2cnc(Nc3ccc(N4CCN(CCO)CC4)c(F)c3)nc2n(C2CCCC2)c1=O [Compound B106, 8-cyclopentyl-2-((3-fluoro-4-(4-(2-hydroxyethyl)piperazin-1-yl)phenyl)amino)-7-oxo-7,8-dihydropyrido[2,3-d]pyrimidine-6-carbonitrile] | 308 | 308 | 27.5 | 27.5 | 509 | 327 | 327 | < 3.2 nM | < 3.2 nM |  |  |  |  |  |
| CS(=O)(=O)N1CCC(Nc2ncc3cc(C#N)c(=O)n(C45CC(C4)C5)c3n2)CC1 [Compound B113, 8-(bicyclo[1.1.1]pentan-1-yl)-2-((1-(methylsulfonyl)piperidin-4-yl)amino)-7-oxo-7,8-dihydropyrido[2,3-d]pyrimidine-6-carbonitrile] | > 10000 | > 10000 | > 10000 | > 10000 | > 10000 | > 10000 | > 10000 | > 10000 nM | > 10000 nM |  | > 10000 |  |  |  |
| CN1CCN(c2ccc(Nc3ncc4cc(C#N)c(=O)n(C56CC(C5)C6)c4n3)cc2F)CC1 [Compound B148, 8-(bicyclo[1.1.1]pentan-1-yl)-2-((3-fluoro-4-(4-methylpiperazin-1-yl)phenyl)amino)-7-oxo-7,8-dihydropyrido[2,3-d]pyrimidine-6-carbonitrile] |  |  |  |  |  |  |  | 59.6 nM | 59.6 nM | 102 |  |  |  |  |
| CN(C)CCOc1ccc(Nc2ncc3cc(C#N)c(=O)n(C45CC(C4)C5)c3n2)nc1 [Compound B149, 8-(bicyclo[1.1.1]pentan-1-yl)-2-((5-(2-(dimethylamino)ethoxy)pyridin-2-yl)amino)-7-oxo-7,8-dihydropyrido[2,3-d]pyrimidine-6-carbonitrile] | > 10000 | > 10000 | 733 | 733 | > 10000 | > 10000 | > 10000 | 505 nM | 505 nM |  | > 10000 |  |  |  |
| CC(=O)c1c(C)c2cnc(Nc3ccc(N4CC(C)NC(C)C4)cc3)nc2n(C2CCCC2)c1=O (centres unmarked) [Compound B150, 6-acetyl-8-cyclopentyl-2-((4-(3,5-dimethylpiperazin-1-yl)phenyl)amino)-5-methylpyrido[2,3-d]pyrimidin-7(8H)-one] | 196 | 196 |  |  | 501 | 655 | 655 | < 3.2 nM | < 3.2 nM |  |  |  |  |  |
| Cc1c(C(=O)N(C)C)c(=O)n(C2CCCC2)c2nc(Nc3ccc(N4CC(C)NC(C)C4)cc3)ncc12 (centres unmarked) [Compound B151, 8-cyclopentyl-2-((4-(3,5-dimethylpiperazin-1-yl)phenyl)amino)-N,N,5-trimethyl-7-oxo-7,8-dihydropyrido[2,3-d]pyrimidine-6-carboxamide] | > 10000 | > 10000 | 5140 | 5140 | > 10000 | > 10000 | > 10000 | 8.93 nM | 8.93 nM |  | > 10000 |  |  |  |
| CS(=O)(=O)N1CCC(Nc2ncc3cc(C#N)c(=O)n(C4CCCC4)c3n2)CC1 [Compound B152, 8-cyclopentyl-2-((1-(methylsulfonyl)piperidin-4-yl)amino)-7-oxo-7,8-dihydropyrido[2,3-d]pyrimidine-6-carbonitrile] | 15.3 | 15.3 | 105 | 105 |  | 745 | 745 | 3.29 nM | 3.29 nM |  |  | 47.9 |  |  |
| CN(C)C(=O)c1cc2cnc(NC3CCN(S(C)(=O)=O)CC3)nc2n(C2CCCC2)c1=O [Compound B153, 8-cyclopentyl-N,N-dimethyl-2-((1-(methylsulfonyl)piperidin-4-yl)amino)-7-oxo-7,8-dihydropyrido[2,3-d]pyrimidine-6-carboxamide] | 285 | 285 | 4580 | 4580 | 763 | > 10000 | > 10000 | 21.3 nM | 21.3 nM |  |  |  |  |  |
| CC(=O)c1c(C)c2cnc(Nc3ccc(N(C)CCN(C)C)cc3)nc2n(C23CC(C2)C3)c1=O [Compound B154, 6-acetyl-8-(bicyclo[1.1.1]pentan-1-yl)-2-((4-((2-(dimethylamino)ethyl)(methyl)amino)phenyl)amino)-5-methylpyrido[2,3-d]pyrimidin-7(8H)-one] | 1520 | 1520 |  |  | 1720 | 785 | 785 |  |  |  |  |  |  |  |
| CC(=O)c1c(C)c2cnc(Nc3ccc(N(C)CCN(C)C)cc3)nc2n(C2CCCC2)c1=O [Compound B155, 6-acetyl-8-cyclopentyl-2-((4-((2-(dimethylamino)ethyl)(methyl)amino)phenyl)amino)-5-methylpyrido[2,3-d]pyrimidin-7(8H)-one] | 81.6 | 81.6 |  |  | 172 | 468 | 468 | < 3.2 nM | < 3.2 nM |  |  |  |  |  |
| CN1CCN(c2ccc(Nc3ncc4cc(C#N)c(=O)n(C5CCCC5)c4n3)cc2)CC1 [ON123300] |  |  |  |  |  |  |  |  |  |  |  |  | 4.76 | 1.68 |
